Data: the CheMixHub ionic liquid set

Assay: xn = mol fraction of the nth substance listed

OC1OC[C@@H](O)[C@H](O)[C@H]1O (some centres not stated) + O + CCCCCC[n+]1ccn(C)c1.[Br-]
298.15 K, 101 kPa
Settings	viscosity [mPa·s]
x1 = 0.0001973, x3 = 0.001843	0.957
x1 = 0.000198, x3 = 0.003653	1.007
x1 = 0.0002099, x3 = 0.005424	1.054
x1 = 0.0002123, x3 = 0.007151	1.106
x1 = 0.0003779, x3 = 0.001843	0.961
x1 = 0.0003808, x3 = 0.003652	1.011
x1 = 0.0003928, x3 = 0.005423	1.059
x1 = 0.0004009, x3 = 0.00715	1.112
x1 = 0.0005548, x3 = 0.001843	0.965
x1 = 0.000588, x3 = 0.003652	1.016
x1 = 0.0005968, x3 = 0.005422	1.064
x1 = 0.0005973, x3 = 0.007149	1.119
x1 = 0.000739, x3 = 0.001842	0.97
x1 = 0.0007594, x3 = 0.003651	1.02
x1 = 0.0007857, x3 = 0.007147	1.124
x1 = 0.0007911, x3 = 0.005421	1.069
x1 = 0.0009323, x3 = 0.001842	0.974
x1 = 0.0009495, x3 = 0.00365	1.025
x1 = 0.0009642, x3 = 0.00542	1.074
x1 = 0.0009957, x3 = 0.007146	1.13
x1 = 0.001116, x3 = 0.001842	0.979
x1 = 0.001147, x3 = 0.005419	1.079
x1 = 0.001153, x3 = 0.003649	1.029
x1 = 0.001184, x3 = 0.007144	1.134
x1 = 0.0013, x3 = 0.001841	0.982
x1 = 0.001326, x3 = 0.003649	1.034
x1 = 0.001352, x3 = 0.005418	1.083
x1 = 0.001359, x3 = 0.007143	1.138
x1 = 0.001475, x3 = 0.001841	0.986
x1 = 0.001497, x3 = 0.003648	1.039
x1 = 0.001552, x3 = 0.005417	1.089
x1 = 0.001588, x3 = 0.007142	1.143
x1 = 0.001657, x3 = 0.001841	0.99
x1 = 0.001681, x3 = 0.003648	1.042
x1 = 0.001708, x3 = 0.005416	1.09
x1 = 0.001731, x3 = 0.00714	1.148

[N-]=C=S.[NH4+] + CC(=O)[O-].CC[n+]1ccn(C)c1
101 kPa
Settings	electrical conductivity [S/m]	viscosity [mPa·s]
298.15 K, x1 = 0.3001	0.344	194.6
298.15 K, x1 = 0.3199	0.353	195.4
303.15 K, x1 = 0.1002	0.371	117.6
303.15 K, x1 = 0.1998	0.386	139.3
303.15 K, x1 = 0.3001	0.447	141.9
308.15 K, x1 = 0.1998	0.491	104
308.15 K, x1 = 0.2514	0.525	–
308.15 K, x1 = 0.3413	0.587	–
313.15 K, x1 = 0.3413	0.807	81.7
318.15 K, x1 = 0.1998	0.852	61.5
328.15 K, x1 = 0.1002	–	34.29
328.15 K, x1 = 0.3199	–	39.29
333.15 K, x1 = 0.02	–	25.64
333.15 K, x1 = 0.1002	–	28.06
333.15 K, x1 = 0.1998	–	31.2
333.15 K, x1 = 0.3001	–	31.43

CCCCCCCCCC[n+]1ccn(C)c1.[Cl-] + O
298.15 K, frequency 5e-05 MHz
Settings	electrical conductivity [S/m]
100 kPa, x1 = 0.0002846	0.126
100 kPa, x1 = 0.0003693	0.163
100 kPa, x1 = 0.0004125	0.177
100 kPa, x1 = 0.0004683	0.205
100 kPa, x1 = 0.0005331	0.235
100 kPa, x1 = 0.0005997	0.262
100 kPa, x1 = 0.0006609	0.294
100 kPa, x1 = 0.0007347	0.32
100 kPa, x1 = 0.0007922	0.347
100 kPa, x1 = 0.0008678	0.375
100 kPa, x1 = 0.000929	0.4
100 kPa, x1 = 0.0009883	0.424
100 kPa, x1 = 0.001073	0.44
100 kPa, x1 = 0.001143	0.446
100 kPa, x1 = 0.001186	0.45
100 kPa, x1 = 0.001274	0.458
100 kPa, x1 = 0.001346	0.467
100 kPa, x1 = 0.001387	0.471
100 kPa, x1 = 0.001452	0.479
100 kPa, x1 = 0.001524	0.489
100 kPa, x1 = 0.001603	0.493
100 kPa, x1 = 0.001637	0.497
101.3 kPa, x1 = 0.04436	4.7

298.15 K, 101.3 kPa
Settings	electrical conductivity [S/m]
x1 = 6.46e-06	0.00385
x1 = 9.55e-06	0.00548
x1 = 1.262e-05	0.00708
x1 = 1.582e-05	0.00872
x1 = 1.894e-05	0.0103
x1 = 2.2e-05	0.0118
x1 = 2.507e-05	0.01334
x1 = 2.8e-05	0.0148
x1 = 3.092e-05	0.0162
x1 = 3.384e-05	0.0176

CCC(=O)[O-].C[NH2+]Cc1ccccc1 + CN(C)C=O
viscosity [mPa·s], 101 kPa
Settings	293.15 K	298.15 K	303.15 K	308.15 K	313.15 K	318.15 K	323.15 K	328.15 K
x1 = 0.006359	0.956	0.914	0.877	0.845	0.816	0.79	0.766	0.745
x1 = 0.01185	0.969	0.926	0.888	0.854	0.824	0.797	0.772	0.75
x1 = 0.01701	0.989	0.944	0.902	0.866	0.835	0.807	0.781	0.758
x1 = 0.02175	1.007	0.958	0.915	0.878	0.845	0.815	0.788	0.764
x1 = 0.02663	1.016	0.966	0.922	0.884	0.85	0.819	0.792	0.768
x1 = 0.03255	1.045	0.991	0.944	0.903	0.866	0.834	0.805	0.779
x1 = 0.0357	1.057	1.001	0.953	0.911	0.874	0.841	0.812	0.786
x1 = 0.04024	1.072	1.015	0.965	0.921	0.882	0.848	0.818	0.791
